We go through one compound from US20240058318A1, “DEGRADING PKCB1 TO TREAT CANCER” (Mayo Foundation for Medical Education and Research, priority 2020, published 2024).

Holding throughout (assay type): cell-based
For one assay, the system named is MDAMB436 cells. Description: Crystal violet (CV) proliferation assay, MDAMB436. The conditions noted are these: MDAMB436 (PKCß1 low, Rb negative), 2000 cells. The procedure:
Cell proliferation rates were determined using crystal violet assays. […] Cells were fixed with 25% glutaraldehyde for 10 minutes with shaking, washed 5 times with distilled water, stained with a 1% crystal violet solution (solubilized in 25% methanol) for 10 minutes, washed again 5 times and allowed to dry. De-staining was performed using […] sodium citrate in 50% ethanol followed by quantification using a 96 well spectrophotometer set at an absorbance of 550 nm.

In the next assay the target is T1, PKCβ1 (Homo sapiens, UniProt P05771).
T1 construct: western blots showing expression of PKCβ1 in MCF7AC1 cells treated with 1 μM concentration of the ENDX-PROTACs or ENDX; endogenous in cells; host or cells: MCF7AC1 (ER+ breast cancer cells)
Description: Western blot, PKCβ1 expression in MCF7AC1 cells. The conditions noted are these: 1 μM, within 72 hours, drugs replenished every 24 hours. The procedure: For western blotting analysis, cells were treated with vehicle (DMSO) or 1 μM of the indicated ENDX-PROTAC's or parent drug ENDX for 24, 48 and 72 hours with the drugs replenished every 24 hours. 25 μg of protein lysates were run on 10% Bis-Tris XT Criterion precast SDS-PAGE gels and transferred on to PVDF membrane. Following blocking with TB ST-5% milk, the membranes were probed with primary antibodies (1:500 — 1:2000 dilutions) for PKCβ1 (Abcam #136917), ERα (SC #8002), E2F1 (SC #251) and Actin (CS#8457) in TBST-5% BSA and secondary antibodies (1:2000 dilution) in TBST-5% milk. Membranes were developed using chemiluminescent WestPico or WestFemto detection solutions on the Li-Cor Imaging system.
In general terms: A western blot detects proteins with antibodies after separation by electrophoresis.

The test system of assay [1] is unfolded protein response (UPR) mRNAs. Description: qRT-PCR of UPR-associated mRNAs in MDAMB231 cells. The settings on record: 1 μM, 0-48 hours, fold relative to DMSO. Here is the method: To evaluate the effect of PROTAC 7 (Pr-7) on expression of various proapoptotic polypeptides, triple negative MDAMB231 cells were treated with DMSO, 1 μM Pr-7, or 1 μM ENDX, and mRNA levels were assessed by qRT-PCR at 0-, 1-, 8-, 24-, and 48-hour time points.
Triple negative breast cancer MDA-MB-231 cells were cultured in phenol-red free DMEM/F12 medium supplemented with 10% FBS and 1% AA. Cells were plated at 1×10^6 cells per 10 cm dish. The next day, the cells were treated with DMSO, 1 μM Pr-7 or 1 μM ENDX for 1, 8, 24, and 48 hours, and were then processed for RNA and RIPA protein analysis.
In particular, total RNA from tissue samples and cell lines was extracted using the RNEASY® Plus mini kit (Qiagen; Hilden, Germany), cDNA was generated using a ISCRIPT™ cDNA synthesis kit (Bio-Rad; Hercules, CA) and qRT-PCR reactions were set up using PERFECTA® SYBR™ green fast mix reagents (Quanta BioSciences; Beverly, MA) and gene-specific primer sets (IDT; Coralville, IA). The forward and reverse primer sequences for the genes used in this analysis were obtained from the Harvard PrimerBank database. Amplification of HPRT and tubulin was used as an internal control. Relative expression between samples was calculated by the comparative Ct method.
For orientation: In qPCR the cycle at which signal appears reflects the starting amount.

T1 sequence (P05771 whole entry): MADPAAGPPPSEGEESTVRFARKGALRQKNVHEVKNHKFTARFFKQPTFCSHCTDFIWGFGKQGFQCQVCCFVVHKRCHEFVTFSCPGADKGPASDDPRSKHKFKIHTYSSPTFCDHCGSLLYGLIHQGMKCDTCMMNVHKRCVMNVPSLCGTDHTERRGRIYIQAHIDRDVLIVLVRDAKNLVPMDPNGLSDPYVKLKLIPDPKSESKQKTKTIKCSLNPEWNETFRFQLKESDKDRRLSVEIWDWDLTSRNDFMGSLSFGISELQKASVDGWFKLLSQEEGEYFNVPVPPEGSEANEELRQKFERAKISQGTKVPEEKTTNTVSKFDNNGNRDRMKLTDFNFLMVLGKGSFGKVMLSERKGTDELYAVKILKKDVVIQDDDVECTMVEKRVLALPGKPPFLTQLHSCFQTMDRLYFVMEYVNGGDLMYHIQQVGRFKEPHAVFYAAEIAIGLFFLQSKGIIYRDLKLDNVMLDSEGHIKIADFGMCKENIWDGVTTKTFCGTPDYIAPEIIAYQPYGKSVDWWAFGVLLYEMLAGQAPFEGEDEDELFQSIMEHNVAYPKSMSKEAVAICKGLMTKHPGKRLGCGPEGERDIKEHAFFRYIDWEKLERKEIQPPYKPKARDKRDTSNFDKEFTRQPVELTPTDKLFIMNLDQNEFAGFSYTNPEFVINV

Broadly, the IC50 is the concentration that inhibits the measured activity by half. The compound `CC/C(=C(\c1ccc(O)cc1)c1ccc(OCCN(C)C(=O)COCCNC(=O)Cc2ccc3c(c2)CN(C2CCC(=O)NC2=O)C3=O)cc1)c1ccccc1` (stereo not drawn) [TC-Pr-007] came in with an IC50 in the assay on MDAMB436 cells of 40 nM. Also, at PKCβ1, the PKCβ1 polypeptide degradation result was “rapidly degraded PKCβ1 polypeptides”. Besides, the “mRNA expression of UPR-associated genes” value in assay [1] is “increased mRNA expression for CHOP, MCL-1, PUMA, NOXA, and Xbp-1”.
